# According to patent publication US11185557B2, “Use of rhamnose and derivatives thereof as antifungal agents” (ISDIN, S.A., priority 2017, dated 2021):
# System: Malassezia furfur
# Assay: Ex-vivo antifungal activity assay on inoculated human skin explants, product applied 24 hours after inoculation, CFU quantification
# Assay type: cell-based
# Conditions: topical 2 mg/cm^2 applied 24 hours post inoculation, versus inoculum (C1) and untreated control explants (C2), FIG. 2
# Procedure: Human organotypic skin cultures were obtained from abdominal skin removed during aesthetic surgery. These skin explants were altered by partial elimination of stratum corneum to facilitate the colonization and MF suspension was placed on the skin surface and incubated for 24 hours under conditions that are optimal for MF growth. 24 hours post initial MF inoculation, NSFC was topically applied on skin explants (2 mg/cm^2) and spread evenly. On control skin explants, inoculated in the same way, no product was applied (C2). A sham control group was treated with a neutral cream without known antifungal properties, petroleum jelly (P3). Growth of MF was monitored by quantifying MF Colony Forming Units (CFUs) in a sample removed from skin surface. The quantification of CFUs was carried out by recovering fungal microorganisms from skin explants and subsequent plating them following the serial dilution method to determine the number of CFUs.
# The antifungal activity was evaluated for Ketoconazole 2% (P1), the composition of example 1 (P2), and petroleum jelly (Vaseline) (P3) with respect to the inoculum concentration (C1) and control skin explants (C2).
smiles,measurement,value
"CC(=O)N1CCN(c2ccc(OCC3COC(Cn4ccnc4)(c4ccc(Cl)cc4Cl)O3)cc2)CC1 (stereo not shown) [Ketoconazol 2%, ketoconazole]",growth of M. furfur on the skin explants (CFUs),reduced the growth of the fungus
